# Values of other authors as cited in patent US9687002B2, “Botanical antimicrobial microemulsions (BAMM)” (Indusco, Ltd., priority 2015, dated 2017).
# System: various fungi that commonly infect toenails
smiles,measurement,value
Cc1ccc(C(C)C)c(O)c1 [Thymol],effectiveness against fungi,effective
